The text below walks through data of patent US4151300A, “Acetohydroxamic acids” (Laboratoire L. Lafon, priority 1976, dated 1979).

Data set [1] concerns central nervous system. Conditions: prior art; cited from earlier work.
The test system of data set [2] is mice. In words: toxicity (isolated mice, intraperitoneal). In kind it is in vivo. How it is done: (§1) The following text summarises a part of the results of the tests which were carried out with the products according to the invention, these products (unless otherwise stated) being administered intraperitoneally, in suspension in a gum solution (gum arabic), in a volume of 20 ml/kg in the case of mice and of 5 ml/kg in the case of rats.

In data set [3] the test system is mice. In words: spontaneous motility (actimeter). In kind it is in vivo. Conditions: i.p. On the procedure: as §1
Thirty minutes after having been given CRL 40,373, the mice (6 per dose, 12 comparison animals) are placed in an actimeter, where their motility is recorded for half an hour.
Thirty minutes after having been given CRL 40,385, the mice are placed in actimeters where their motility is recorded for half an hour.

For data set [4], the system named is mice. In words: inter-group aggressiveness (number of fights). Format: in vivo. On the procedure: as §1
After three weeks' residence in each of the halves of a cage divided by an opaque partition, the mice receive CRL 40,373 thirty minutes before being brought together by withdrawing the partition.
After 18 days' residence on either side of a partition separating their cage in the middle, groups of 3 mice receive CRL 40,385 and are brought together half an hour later by withdrawing the partition, and the number of fights which take place in the course of 15 minutes is noted.

In data set [5] the test system is mice. In words: motility reduced by hypoxia treatment (motor recovery). Format: in vivo. Conditions: for motor recovery after hypoxia/anoxia by pressure reduction: mice, i.p.
The test system of data set [6] is mice. In words: interaction with oxotremorine (temperature, trembling, peripheral cholinergic symptoms). Format: in vivo. Conditions: mice, i.p.
The test system of data set [7] is mice. In words: interaction with reserpine (hypothermia, ptosis). Format: in vivo. Conditions: i.p.; for reserpine-induced hypothermia: 512 mg/kg.
For data set [8], the system named is mice. Put plainly: motility reduced by habituation to a cage (residual motility). Format: in vivo. Conditions: i.p. How it is done: as §1
Mice which have remained for 18 hours in the actimeters are given CRL 40,373. They are immediately replaced in their cages and, after a period of half an hour, their motility is recorded for 30 minutes (6 animals per dose, 12 comparison animals).
After remaining for 18 hours in the actimeters, the mice receive CRL 40,385. Immediately afterwards they are replaced in their cage and half an hour afterwards the recording of the motility starts and is continued for 30 minutes.

The next data set deals with rats. In words: interaction with amphetamine (stereotypies in rats). Format: in vivo. Conditions: i.p., 256 mg/kg. How it is done: as §1
30 minutes after the administration of CRL 40,373, amphetamine is injected intraperitoneally at a dose of 2 mg/kg.
Thirty minutes after the administration of CRL 40,385 the rats are given an intraperitoneal injection of 2 mg/kg of amphetamine (6 animals per dose).

Data set [9] concerns central nervous system. In words: psychopharmacological study / behaviour. In kind it is in vivo, mice. Conditions: high dose (256 mg/kg).

Take `O=C(C[S+]([O-])C(c1ccccc1)c1ccccc1)NO` (stereo not drawn) [β-benzhydrylsulphinyl-acetohydroxamic acid]: in the data set on central nervous system [1], the usefulness in therapy result is “of interest in the treatment of the central nervous system”.

Consider `CC(C(=O)NO)N1C(=O)NC(c2ccccc2)(c2ccccc2)C1=O` (centres unmarked) [CRL 40,447, 2-[3-(5,5-Diphenylhydantoinyl)]-propionohydroxamic acid], for which the “LD-O (maximum non-lethal dose)” value with mice [2] (mouse, in vivo, ip) is reported as “greater than 1,024 mg/kg”. Besides, in the data set on mice [3] (mice, 512 mg/kg), the spontaneous motility result is “reduces the spontaneous motility of mice”.

In the case of `CCC(C(=O)NO)C(=O)N(c1ccccc1)c1ccccc1` (centres unmarked) [CRL 40,439, 2-(N,N-Diphenylcarbamoyl)-butyrohydroxamic acid], in the data set on mice [4] (mice, i.p.), the inter-group aggressiveness result is “moderately reduces the inter-group aggressiveness in mice”. Also, the “motor recovery after hypoxia/anoxia by pressure reduction” value in the data set on mice [5] is on record as “does not improve the motor recovery”. Besides, the “LD-O (maximum non-lethal dose)” value in the data set with mice [2] (mice, i.p.) is recorded as “greater than 1,024 mg/kg”. Besides, the symptoms / behaviour result in the data set on mice [2] (mouse, in vivo, ip, 128 mg/kg) was “none of these symptoms is observed”. For the same molecule, the oxotremorine-induced trembling result in the data set on mice [6] is “moderately reduces the intensity of the trembling movements due to oxotremorine”. Further, the “temperature (oxotremorine-induced hypothermia)” value (“temperature” for short) with mice [6] (512 mg/kg) was “increases, at a dose of 512 mg/kg, the hypothermia-inducing effect of reserpine and of oxotremorine”. In addition, in the data set on mice [7], the reserpine-induced ptosis result is “does not affect reserpine-induced ptosis” and the reserpine-induced hypothermia entry is “increases, at a dose of 512 mg/kg, the hypothermia-inducing effect of reserpine”. Further, the spontaneous motility result in the data set on mice [3] (mice, 512 mg/kg) is given as “very great reduction in the spontaneous motility”. The “motility reduced by habituation to the cage” value (from here on “motility reduced”) in the data set with mice [8] (128 mg/kg) is “causes a resumption of the motor activity in animals habituated to their cage”.

`O=C(CCC[S+]([O-])c1ccc(F)cc1)NO` (centres unmarked) [4-(p-fluorophenylsulphinyl)-butyrohydroxamic acid]: the usefulness in therapy entry in the data set with central nervous system [1] is reported as “of interest in the treatment of the central nervous system”.

With `O=C(CC[S+]([O-])c1ccc(F)cc1)NO` (centres unmarked) [3-(p-fluorophenylsulphinyl)-propionohydroxamic acid], the usefulness in therapy entry with central nervous system [1] is “of interest in the treatment of the central nervous system”.

`O=C(CCC[S+]([O-])C(c1ccccc1)c1ccccc1)NO` (centres unmarked) [4-benzhydrylsulphinyl-butyrohydroxamic acid]: the usefulness in therapy result with central nervous system [1] is “of interest in the treatment of the central nervous system”.

For `O=C(CCC[S+]([O-])c1ccc(Cl)cc1)NO` (centres unmarked) [4-(p-chlorophenylsulphinyl)-butyrohydroxamic acid], in the data set on central nervous system [1], the usefulness in therapy result is reported as “of interest in the treatment of the central nervous system”.

In the case of `O=C(CC(=O)Nc1ccc(Cl)c(Cl)c1)NO` [CRL 40,491, 3,4-Dichlorophenylcarbamoylacetohydroxamic acid], in the data set with mice [4] (mice, i.p., 256 mg/kg), the inter-group aggressiveness result is recorded as “reduces the inter-group aggressiveness of mice”. Further, the “LD-O (maximum non-lethal dose)” value with mice [2] (mice, i.p.) is on record as “greater than 1,024 mg/kg”. For the same molecule, the mortality entry in the data set on mice [2] (mice, i.p., 1,024 mg/kg, 24 hours after administration) is “no mortality 24 hours after administration”. The amphetamine-induced stereotypies entry in the data set on rats is recorded as “reduces the intensity of amphetamine-induced stereotypies”. For the same molecule, the spontaneous motility entry in the data set with mice [3] (mice, 512 mg/kg) is on record as “reduction in the spontaneous motility of mice”. Also, in the data set with mice [8] (256 mg/kg), the “motility reduced” value is recorded as “moderate resumption of the activity of mice habituated to their cage”.

For `O=C(Cc1nc2ccccc2n1-c1ccccc1)NO` [CRL 40,490, 2-(1-Phenyl-benzimidazolyl)-acetohydroxamic acid], the “LD-O (maximum non-lethal dose)” value with mice [2] (mice, i.p.) is recorded as “greater than 1,024 mg/kg”.

Take `O=C(CN1C(=O)NC(c2ccc(Cl)cc2)(c2ccc(Cl)cc2)C1=O)NO` [CRL 40,468, 3-(5,5-di-p-chlorophenyl-hydantoinyl)-acetohydroxamic acid]: the aggressiveness result in the data set on mice [4] (mice, i.p., large/high dose) was “reduces the number of fights”. Also, the mortality entry in the data set with mice [2] (mouse, in vivo) is listed as “found dead 24 hours after the injection”; in the data set with mice [2] (mouse, in vivo, ip, 512 mg/kg), “no mortality is observed”. The symptoms / behaviour result in the data set on mice [2] (mouse, in vivo, ip, 512 mg/kg) is on record as “the symptoms are comparable”.

Consider `O=C(C[S+]([O-])Cc1ccc(Cl)cc1)NO` (stereo not drawn) [CRL 40,411, α-(Chlorobenzylsulphinyl)-acetohydroxamic acid], for which, in the data set on mice [2] (mice, i.p.), the “LD-O (maximum non-lethal dose)” value is recorded as “greater than 1,024 mg/kg”.

On to `O=C(CC(O)COc1cccc2ccccc12)NO` (stereo not drawn) [4-α-naphthyloxy-3-hydroxybutyrohydroxamic acid], for which the usefulness in therapy result in the data set on central nervous system [1] is “inactive in therapy”.

Consider `O=C(CCC[S+]([O-])c1ccccc1)NO` (centres unmarked) [4-phenylsulphinylbutyrohydroxamic acid], for which the usefulness in therapy result in the data set on central nervous system [1] is “of interest in the treatment of the central nervous system”.

Turning to `COc1cc(NC(=O)CC(=O)NO)cc(OC)c1OC` [CRL 40,509, 3,4,5-Trimethoxyphenyl-carbamoyl-acetohydroxamic acid], the anti-aggressive effect result in the data set on mice [4] (very low doses (8 and 16 mg/kg)) is reported as “an effect of the anti-aggressive type”. In addition, in the data set on mice [5] (64 and 128 mg/kg), the anti-anoxia effect result is “an effect of the anti-anoxia type”. In addition, the sedation entry in the data set with central nervous system [9] is on record as “sedation”.

Regarding `CCC1(c2ccccc2)NC(=O)N(CC(=O)NO)C1=O` (centres unmarked) [CRL 40,450, 3-(5-Ethyl-5-phenyl-hydantoinyl)-acetohydroxamic acid], the inter-group aggressiveness entry in the data set with mice [4] (mice, i.p., 512 and 256 mg/kg) is on record as “reduces the inter-group aggressiveness in mice”. In addition, the “LD-O (maximum non-lethal dose)” value in the data set with mice [2] (mice, i.p.) is listed as “greater than 1,024 mg/kg”. For the same molecule, the “temperature” value in the data set with mice [6] (512 mg/kg) was “aggravates the hypothermia induced by reserpine and by oxotremorine”. Further, the oxotremorine-induced trembling entry in the data set with mice [6] (high dose (512 mg/kg)) was “reduces the intensity of the trembling movements due to oxotremorine”. Moreover, in the data set with mice [7], the reserpine-induced hypothermia result is on record as “aggravates the hypothermia induced by reserpine”. In addition, the spontaneous motility entry with mice [3] (mice, 512 mg/kg) is given as “reduction in the spontaneous motility of mice”.

Regarding `O=C(CNC(=O)Nc1ccccc1)NO` [CRL 40,513, 5-Phenylureidoacetohydroxamic acid], the inter-group aggressiveness result in the data set with mice [4] (mice, i.p.) is “anti-aggressive effect”. The “motor recovery after hypoxia/anoxia by pressure reduction” value in the data set with mice [5] is on record as “improvement in the motor recovery of mice”. Further, in the data set on mice [2] (mouse, in vivo, ip), the “LD-O (maximum non-lethal dose)” value was “greater than 1,024 mg/kg”; the symptoms / behaviour result is “sedation and hypothermia”.

As to `O=C(CC[S+]([O-])C(c1ccccc1)c1ccccc1)NO` (centres unmarked) [3-benzhydrylsulphinyl-propionohydroxamic acid], the usefulness in therapy result in the data set on central nervous system [1] is “of interest in the treatment of the central nervous system”.

With `O=C(C[S+]([O-])Cc1cccc2ccccc12)NO` (stereo not drawn) [CRL 40,475, α-Naphthylmethylene-sulphinyl-acetohydroxamic acid], the “LD-O (maximum non-lethal dose)” value with mice [2] (mice, i.p.) was “greater than 1,024 mg/kg”.

Consider `O=C(CC(=O)Nc1ccc(Cl)cc1)NO` [CRL 40,464, N-(4-Chlorophenyl)-carbamoyl-acetohydroxamic acid], for which the “LD-O (maximum non-lethal dose)” value with mice [2] (mice, i.p.) is “greater than 1,024 mg/kg”. In addition, in the data set on mice [6], the oxotremorine-induced trembling result is on record as “moderately reduces the intensity of the trembling movements” and the “temperature” value was “aggravates the hypothermia due to oxotremorine”. The amphetamine-induced stereotypies result with rats was “reduces the intensity of amphetamine-induced stereotypies”. Moreover, in the data set on mice [3], the spontaneous motility entry is given as “reduces the spontaneous motility in mice”. In the data set on mice [8] (128 mg/kg), the “motility reduced” value is “causes a resumption of the motor activity in animals habituated to their cage”.

As for `O=C(CC(=O)N(C1CCCCC1)C1CCCCC1)NO` [CRL 40,446, N,N-(Dicyclohexyl)-carbamoylacetohydroxamic acid], in the data set with mice [4] (mice, i.p.), the inter-group aggressiveness result is “reduces, to a moderate degree, inter-group aggressiveness in mice”. Also, in the data set on mice [5], the “motor recovery after hypoxia/anoxia by pressure reduction” value is given as “does not cause any resumption in the motor activity of mice”. In addition, the mortality entry in the data set on mice [2] (mouse, in vivo) is “does not cause any mortality whatsoever”. Moreover, in the data set with mice [7], the reserpine-induced ptosis result is on record as “ptosis induced by reserpine is not affected” and the reserpine-induced hypothermia result is “partially antagonises hypothermia induced by reserpine”. Moreover, the spontaneous motility entry in the data set with mice [3] (mice, 128 and 512 mg/kg) was “reduces the spontaneous motility in mice”. The “motility reduced” value with mice [8] is reported as “does not cause any resumption in the motor activity of mice”.
